Data as given in patent US8153615B2, “Synthesis of glycerolipid carbamates and dicarbamates and their use as an antitumor compounds” (priority 2005, dated 2012).
Several values for one entry are separate records, joined by “and”; a condition that tells them apart may be missing. Equal values may be shown once.

What was measured:
DU145 cells [1] = experiment: Antiproliferative evaluation, CyQuant assay, DU145; format: cell-based, human; conditions: exponentially growing cells, 48 h incubation, read-out: IC50, growth inhibition, DU145, prostate
Method: (§1) FIG. 2 is a graphical depiction of the results of an antiproliferative evaluation of compound I against the following cancer cell lines: DU145, PC3, BT549, HeLa, MDA-MB-231, A549, and MCF-7. Cells growing exponentially in 48-well plates were incubated with different concentrations of compound I for 48 h. The increases in cell numbers were determined by the CyQuant assay and are expressed as a percentage of the increase in control wells with the vehicle (0.1% ethanol). The results are the average+SD from six different wells.
as §1, with “FIG. 3” for “FIG. 2”, “compound II” for “compound I”
as §1, with “FIG. 4” for “FIG. 2”, “compound III” for “compound I”
as §1, with “FIG. 5” for “FIG. 2”, “compound IV” for “compound I”
as §1, with “FIG. 6” for “FIG. 2”, “compound V” for “compound I”
(§2) We screened the compounds against a panel of human cancer cell lines derived from a number of tissues. […]

PC3 cells = experiment: Antiproliferative evaluation, CyQuant assay, PC3; format: cell-based, human; conditions: exponentially growing cells, 48 h incubation, read-out: IC50, growth inhibition, PC3, prostate
Method: as §1
as §1, with “FIG. 3” for “FIG. 2”, “compound II” for “compound I”
as §1, with “FIG. 4” for “FIG. 2”, “compound III” for “compound I”
as §1, with “FIG. 5” for “FIG. 2”, “compound IV” for “compound I”
as §1, with “FIG. 6” for “FIG. 2”, “compound V” for “compound I”
as §2

MCF-7 cells = experiment: Antiproliferative evaluation, CyQuant assay, MCF-7; format: cell-based, human; conditions: exponentially growing cells, 48 h incubation, read-out: IC50, growth inhibition, MCF-7, breast
Method: as §1
as §1, with “FIG. 3” for “FIG. 2”, “compound II” for “compound I”
as §1, with “FIG. 4” for “FIG. 2”, “compound III” for “compound I”
as §1, with “FIG. 5” for “FIG. 2”, “compound IV” for “compound I”
as §1, with “FIG. 6” for “FIG. 2”, “compound V” for “compound I”, “wells. […]” for “wells.”

A549 cells = experiment: Antiproliferative evaluation, CyQuant assay, A549; format: cell-based, human; conditions: exponentially growing cells, 48 h incubation, read-out: IC50, growth inhibition, A549, lung
Method: as §1
as §1, with “FIG. 3” for “FIG. 2”, “compound II” for “compound I”
as §1, with “FIG. 4” for “FIG. 2”, “compound III” for “compound I”
as §1, with “FIG. 5” for “FIG. 2”, “compound IV” for “compound I”
as §1, with “FIG. 6” for “FIG. 2”, “compound V” for “compound I”, “wells. […]” for “wells.”

HepG2 cells = conditions: read-out: IC50, antiproliferative effect, HepG2 (liver); proliferating cells, 0-20 μM, 48 h, CyQuant assay
Method: (§3) Specifically, proliferating cells in 48-well plates were incubated with 0-20 μM of the compound for 48 hours. The cell numbers present were determined by the CyQuant™ assay (Invitrogen), and the increase in numbers were expressed relative to the controls receiving only the vehicle (0.1% ethanol).
(§4) Proliferating cells in 48-well plates were incubated with 0-20 μM of the compound for 48 h. The cell numbers present were determined by the CyQuant™ assay (Invitrogen), and the increase in numbers were expressed relative to the controls receiving only the vehicle (0.1% ethanol).

SK-N-MC cells = conditions: read-out: IC50, antiproliferative effect, SK-N-MC (neuronal); proliferating cells, 0-20 μM, 48 h, CyQuant assay
Method: as §3, §4

SK-N-SH cells = conditions: read-out: IC50, antiproliferative effect, SK-N-SH (neuronal); proliferating cells, 0-20 μM, 48 h, CyQuant assay
Method: as §3, §4

[2] = test system: prostate cancer cells (DU145, PC3) relative to other cancer cell lines; experiment: Prostate cancer cell selectivity across the panel of human cancer cell lines; format: cell-based; conditions: prostate lines versus other cancer cell lines, 48 h
Text: (§5) We screened the compounds against a panel of human cancer cell lines derived from a number of tissues. These were breast (MCF-7, BT549, SKBr3, MDA-MB-231), lung (A549), cervix (HeLa), and prostate (DU145, PC3) cancer cell lines. […] In some cases, the IC50 values were much lower than values reported for ET-18-OCH3, indicative of a greater degree of potency of these new compounds. The most striking observation is that the greatest inhibition of cell growth was found when the two prostate cell lines, DU145 and PC3, were treated with these compounds. […] Because hormone-insensitive prostate cancer cells are highly sensitive to the active compounds described herein, (compounds I, II, and III), we postulate that it may be possible to selectively kill prostate cancer cells with low concentrations without harming other cells in the body. The prostate selectivity observed with compound I was also observed with compounds II and III (Table 1 and FIGS. 3 and 4) and distinguishes these compounds from other antitumor compounds.

BT549 cells = experiment: Antiproliferative evaluation, CyQuant assay, BT549; format: cell-based, human; conditions: exponentially growing cells, 48 h incubation, read-out: IC50, growth inhibition, BT549, breast
Method: as §1
as §1, with “FIG. 3” for “FIG. 2”, “compound II” for “compound I”, “ethanol). […]” for “ethanol). The results are the average+SD from six different wells.”
(§6) FIG. 4 is a graphical depiction of the results of an antiproliferative evaluation of compound III against the following cancer cell lines: DU145, PC3, BT549, HeLa, MDA-MB-231, A549, and MCF-7. […] The increases in cell numbers were determined by the CyQuant assay and are expressed as a percentage of the increase in control wells with the vehicle (0.1% ethanol). […]
as §6, with “FIG. 5” for “FIG. 4”, “compound IV” for “compound III”
as §6, with “FIG. 6” for “FIG. 4”, “compound V” for “compound III”

MDA-MB-231 cells = experiment: Antiproliferative evaluation, CyQuant assay, MDA-MB-231; format: cell-based, human; conditions: exponentially growing cells, 48 h incubation, read-out: IC50, growth inhibition, MDA-MB-231, breast
Method: as §1
as §1, with “FIG. 3” for “FIG. 2”, “compound II” for “compound I”, “ethanol). […]” for “ethanol). The results are the average+SD from six different wells.”
as §6
as §6, with “FIG. 5” for “FIG. 4”, “compound IV” for “compound III”
as §6, with “FIG. 6” for “FIG. 4”, “compound V” for “compound III”

HeLa cells = experiment: Antiproliferative evaluation, CyQuant assay, HeLa; format: cell-based, human; conditions: exponentially growing cells, 48 h incubation, read-out: IC50, growth inhibition, HeLa, cervix
Method: as §1
as §1, with “FIG. 3” for “FIG. 2”, “compound II” for “compound I”, “ethanol). […]” for “ethanol). The results are the average+SD from six different wells.”
as §6
as §6, with “FIG. 5” for “FIG. 4”, “compound IV” for “compound III”
as §6, with “FIG. 6” for “FIG. 4”, “compound V” for “compound III”

DU145 cells [3] = experiment: Toxicity (loss of viability) to DU145 cells; format: cell-based, human
Text: as §5

| Compound | IC50 (DU145 cells [1]) | IC50 (PC3 cells) [nM] | IC50 (MCF-7 cells) [µM] | IC50 (A549 cells) [µM] | IC50 (HepG2 cells) [µM] | IC50 (SK-N-MC cells) [µM] | IC50 (SK-N-SH cells) [µM] | prostate cancer cell selectivity [2] | IC50 (BT549 cells) [µM] | IC50 (MDA-MB-231 cells) [µM] | IC50 (HeLa cells) [µM] | concentration toxic to the cells (loss of viability) (DU145 cells [3]) [µM] |
| --- | --- | --- | --- | --- | --- | --- | --- | --- | --- | --- | --- | --- |
| 1-O-(7-N, N-dimethylamino-3-pentadecanoyl-1-napthyl)-2-O-methyl-sn-glycero-3-phosphocholine | 3500 nM | 1900 | > 20 | > 20 | > 20 | > 20 | < 20 | highly selective for prostate cancer cells |  |  |  |  |
| CCCCCCCCCCCCCCCCOC[C@@H](CCP(=O)([O-])OCC[N+](C)(C)C)OC(=O)NC [Compound I, 2′-(trimethylammonio)ethyl 4-hexadecyloxy-3(R)—N-methylcarbamoyl-1-butanephosphonate] | 1000 nM and 1200 nM | 1200 | 4 | 10.7 |  |  |  |  | 4.4 | 3.7 | 3.3 | 2.5 |
| CCCCCCCCCCCCCCCCOC[C@H](CCP(=O)([O-])OCC[N+](C)(C)C)OC(=O)NC [Compound II, 2′-(trimethylammonio)ethyl 4-hexadecyloxy-3(S)—N-methylcarbamoyl-1-butane-phosphonate] | 2100 nM | 2500 | 10.1 | > 20 |  |  |  |  | 6.8 | 6.1 | 7.9 |  |
| CCCCCCCCCCCCCCCCOC[C@@H](COP(=O)([O-])OCC[N+](C)(C)C)NC(=O)OC [Compound III, 2′-(trimethylammonio)ethyl 2(S)—(N-methoxycarbonylamido)-3-hexadecyloxypropanephosphate] | 2400 nM | 1900 | 9.1 | > 20 |  |  |  | greatest prostate cancer cell selectivity | 13.4 | 10.5 | 19.3 |  |
